Key:
[1] = system: recombinant IPMDH (3-isopropylmalate dehydrogenase); test: biochemical screen for inhibitors of recombinant IPMDH (spectrometric NADH assay at 340 nm); design: species or system Septoria nodorum; details: buffer as control; for % inhibition at 3.3 ppm: first test; for % inhibition at 3.3 ppm, Repeat: repeat test
Protocol: The recombinant IPMDH was used in a biochemical screen for inhibitors of 3-isopropylmalate dehydrogenase as follows. The assay was originally described by Parsons in 1969 (Purification and properties of β-IPMD, Parsons et al., Journal of Biological Chemistry, 244, (4), 996-1003. It is an spectrometric assay, based on the reduction of coenzyme […] measured at 340 nm. Prior to any assay the rate of production of a given unit of β-NADH was determined and only the rate of the initial linear fraction of the progress curve was taken for the evaluated assay. The reagents for the assay are: the enzyme 3-Isopropyl malate dehydrogenase, KH2PO4, MnCl2, β-NAD (nicotinamide adenine dinucleotide) and the substrate isopropylmalate. […] The mixture is incubated for two minutes at 25°C and the reaction is started by adding 140µl buffer containing the substrate IPM, KH2PO4, MnCl2, β-NAD at pH8. The rate of the increase β-NADH is monitored each minute and five data points are collected. The inhibition of the potential inhibitors are expressed in %-inhibition using buffer as a control. […] Tabulated below are a selection of compounds which gave a significant inhibition of recombinant IPMDH. These compounds were also able to inhibit Septoria nodorum in vitro. […] Approximately 10^5 conidia of Septoria nodorum BS171 were inoculated to Cz medium with the compounds and the effect on fungal growth assessed after six days.

Septoria nodorum (BS171) = test: in vitro inhibition of fungal growth in Cz medium; format: cell-based; details: Parastagonospora nodorum, 144 h; tested at 10, 25, 50, 75, 100, 150, 200 and 250 ppm in Cz medium; growth assessed after six days
From the text: Tabulated below are a selection of compounds which gave a significant inhibition of recombinant IPMDH. These compounds were also able to inhibit Septoria nodorum in vitro. […] Approximately 10^5 conidia of Septoria nodorum BS171 were inoculated to Cz medium with the compounds and the effect on fungal growth assessed after six days.

Plasmopara viticola = test: in vivo fungicidal activity on test plants, visually estimated infection
Erysiphe cichoracearum = test: as above; details: 500 ppm
Phytophthora infestans = format: in vivo; details: 500 ppm; late tomato or potato blight; score = % control class
[2] = 125 ppm, vine downy mildew, score = % control class
[3] = cucumber powdery mildew, score = % control class

Structure (SMILES)	% inhibition at 3.3 ppm [1] [%]	% inhibition at 3.3 ppm, Repeat [1] [%]	MIC (Septoria nodorum (BS171)) [µg/mL]	Score (Plasmopara viticola; [2])	Score (Erysiphe cichoracearum; [3])	Score (Phytophthora infestans)	Score (Plasmopara viticola; 500 ppm, vine downy mildew, score = % control class)	Score (Plasmopara viticola; 125 ppm)	Score (Erysiphe cichoracearum)
O=C(Oc1ccccc1)n1c(C(F)(F)F)nc2cc(Br)c(Cl)cc21 [Compound 1, phenyl 5-bromo-6-chloro-2-trifluoromethyl-benzimidazole-1-carboxylate]	33	56	100 to 150	5 (@125 ppm) (65-74)	6 (75-84)	7 (85-94)	–	–	–
O=C(Oc1ccccc1)n1c(C(F)(F)F)nc2c(Br)c(Br)c(Br)cc21 [Compound 2, phenyl 4,5,6-tribromo-2-trifluoromethyl-benzimidazole-1-carboxylate]	33	42	> 250	6 (@125 ppm) (75-84)	7 (85-94)	6 (75-84)	–	–	–
CC(C)CCC(C)OC(=O)n1c(C(F)(F)F)nc2c(Br)c(Br)c(Br)cc21 (centres unmarked) [Compound 3, 1,4-dimethylpentyl 4,5,6-tribromo-2-trifluoromethyl-benzimidazole-1-carboxylate]	57	20	100 to 150	–	8 (95-100)	–	8 (95-100)	–	–
N#Cc1sc2c(=O)c3ccccc3c(=O)c=2sc1C#N [Compound 4, 5,10-dioxo-5,10-dihydronaphtho-[2,3-b][1,4]dithiine-2,3-dicarbonitrile]	41	66	0 to 10	–	–	7 (85-94)	–	7 (@125 ppm) (key: 0-20; 1: 20-34; 2: 35-44; 3: 45-54; 55-64; 65-74; 6: 75-84; 7: 85-94; 8: 95-100)	0 (key: 0-20; 1: 20-34; 2: 35-44; 3: 45-54; 55-64; 65-74; 6: 75-84; 7: 85-94; 8: 95-100)

From EP0981626B1, “FUNGICIDAL TEST METHOD” (Bayer CropScience Limited, priority 1997, dated 1998)
